Like-named read-outs stand apart in the source and are kept apart here. Blank lines part the entries; values can stand above or below the compound they belong to.
Assays:
[1] = target: T1, E1-STS (Homo sapiens, UniProt P08842); assay: Hydrolysis of coumarin sulphate (12) by placental microsomes, TLC; format: biochemical
T1 construct: from tissue; host or cells: placental microsomes (100,000 g fraction)
T1 sequence (P08842 22-583): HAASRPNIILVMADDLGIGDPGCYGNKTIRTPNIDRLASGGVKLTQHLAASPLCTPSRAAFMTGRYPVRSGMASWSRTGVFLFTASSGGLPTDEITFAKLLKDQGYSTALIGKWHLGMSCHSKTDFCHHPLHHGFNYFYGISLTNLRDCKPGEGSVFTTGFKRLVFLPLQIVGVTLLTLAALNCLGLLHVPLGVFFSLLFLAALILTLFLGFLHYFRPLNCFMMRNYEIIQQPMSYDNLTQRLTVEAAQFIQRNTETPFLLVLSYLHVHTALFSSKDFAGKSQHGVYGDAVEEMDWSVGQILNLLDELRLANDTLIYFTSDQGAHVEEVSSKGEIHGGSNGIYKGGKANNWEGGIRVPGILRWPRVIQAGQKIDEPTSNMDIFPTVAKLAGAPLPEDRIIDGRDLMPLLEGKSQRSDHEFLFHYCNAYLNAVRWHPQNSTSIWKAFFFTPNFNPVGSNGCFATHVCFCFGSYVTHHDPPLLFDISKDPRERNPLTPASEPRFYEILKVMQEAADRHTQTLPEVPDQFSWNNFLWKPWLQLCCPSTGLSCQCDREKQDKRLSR

[2] = Chemical and thermal stability of compound 12; format: physicochemical; conditions: sodium hydroxide in methanol
Text: Two equivalents of sodium hydroxide are required for consuming excess sulphur trioxide-pyridine complex to yield the neutral sodium sulphate. Insufficient amount of sodium hydroxide will therefore lead to the formation of sodium hydrogen sulphate which is acidic.

[3] = target: T2, oestrone sulphatase (E1-STS) (Homo sapiens, UniProt P08842); format: cell-based; conditions: intact MCF-7 cells, 20 h
T2 sequence (P08842 22-583): T1 sequence (P08842 22-583)

[4] = target: T3, oestrone sulphatase (Rattus norvegicus, UniProt P15589); assay: Inhibition of oestrone sulphatase activity in vivo in rat liver (NOMATE); conditions: 0.1 mg/Kg/day for five days orally; rat liver tissue; compared with untreated controls
T3 construct: samples of liver tissue were obtained; from tissue; host or cells: rat liver
T3 sequence (P15589 20-577): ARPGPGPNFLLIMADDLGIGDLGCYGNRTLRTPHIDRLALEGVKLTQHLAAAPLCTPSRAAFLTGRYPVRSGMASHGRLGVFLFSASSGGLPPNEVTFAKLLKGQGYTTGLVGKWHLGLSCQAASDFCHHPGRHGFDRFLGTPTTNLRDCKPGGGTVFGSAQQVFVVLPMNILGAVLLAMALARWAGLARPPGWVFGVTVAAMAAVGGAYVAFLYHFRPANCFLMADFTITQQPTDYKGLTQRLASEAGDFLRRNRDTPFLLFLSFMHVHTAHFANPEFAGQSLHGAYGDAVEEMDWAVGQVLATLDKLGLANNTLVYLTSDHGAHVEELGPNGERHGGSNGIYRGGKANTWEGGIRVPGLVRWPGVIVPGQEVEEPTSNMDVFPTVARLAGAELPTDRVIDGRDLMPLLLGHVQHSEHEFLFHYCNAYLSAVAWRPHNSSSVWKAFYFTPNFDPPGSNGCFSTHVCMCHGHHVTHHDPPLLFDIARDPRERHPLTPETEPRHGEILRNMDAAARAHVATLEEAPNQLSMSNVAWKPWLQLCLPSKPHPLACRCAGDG
Procedure: (§1) Using 17-deoxy oestrone-3-O-sulphamate (NOMATE, FIG. 5 Formula IV where X=—OSO2NH2, Y=—CH2— and R1 and R2=H, and FIG. 13) as a representative example, the ability of this compound to inhibit oestrone sulphatase activity in vivo was examined in rats. The oestrogenicity of this compound was examined in ovariectomised rats. In this model compounds which are oestrogenic stimulate uterine growth.
NOMATE (0.1 mg/Kg/day for five days) was administered orally to rats with another group of animals receiving vehicle only (propylene glycol). At the end of the study samples of liver tissue were obtained and oestrone sulphatase activity assayed using ^3H oestrone sulphate as the substrate as previously described.

[5] = system: uterine growth; assay: In vivo oestrogenicity: uterine weight in ovariectomised rats (NOMATE); set-up: species or system rat; conditions: 0.1 mg/Kg/day for five days orally
Procedure: as §1
NOMATE (0.1 mg/Kg/day for five days) was administered orally to rats with another group of animals receiving vehicle only (propylene glycol). At the end of the study uteri were obtained and weighed with the results being expressed as uterine weight/whole body weight×100.

[6] = target: T4, oestrone sulphatase (Homo sapiens, UniProt P08842)
T4 sequence (P08842 22-583): T1 sequence (P08842 22-583)

[7] = system: uterine weight; assay: Oestrogenic activity: uterine weight in ovariectomised rats (compound 14); format: in vivo, rat; conditions: 1 mg/kg subcutaneously for 5 days
[8] = target: T5, E1-STS (Rattus norvegicus, UniProt P15589); assay: E1-STS activity in uteri of treated ovariectomised rats; format: in vivo; conditions: 1 mg/kg subcutaneously for 5 days, compared with untreated animals
T5 construct: The E1-STS activity in the uteri obtained from these animals; from tissue; host or cells: rat uterus
T5 sequence (P15589 20-577): T3 sequence (P15589 20-577)

[9] = target: T6, sulphatase (Rattus norvegicus, UniProt P15589); assay: Sulphatase activity in white blood cells of rats after oral dosing; format: in vivo; conditions: for % Inhibition MD / % Inhibition SD: white blood cells; for % Inhibition SD: single dose
T6 construct: from tissue; host or cells: rat white blood cells
T6 sequence (P15589 20-577): T3 sequence (P15589 20-577)
Procedure: Inhibition of sulphatase activity was assessed in white blood cells (wbcs) that were collected after a SD or MD. Sulphatase activity was assayed using labelled oestrone sulphate as the substrate and measuring the release of oestrone.

[10] = target: T7, Steroid sulphatase (Rattus norvegicus, UniProt P15589); assay: Steroid sulphatase activity in liver microsome preparations from rats treated subcutaneously; format: in vivo; set-up: except that the tissue source was rat liver; from tissue; host or cells: liver of female Wistar rats; conditions: 10 mg/kg/day s.c. for 7 days, rat liver microsomes; for Steroid Sulphatase Activity: mean ± 1 S.D., n = 3
T7 sequence (P15589 20-577): T3 sequence (P15589 20-577)

[11] = target: T8, Steroid sulphatase (Homo sapiens, UniProt P08842); assay: biochemical
T8 sequence (P08842 22-583): T1 sequence (P08842 22-583)

[12] = target: T9, Steroid sulphatase (Steryl Sulphatase EC3.1.6.2) (Homo sapiens, UniProt P08842); assay: Steroid sulphatase activity in intact MCF-7 cells; format: cell-based; conditions: for Steroid Sulphatase Activity: mean ± 1 S.D., n = 3
T9 construct: endogenous in cells; host or cells: MCF-7 human breast cancer cells
T9 sequence (P08842 22-583): T1 sequence (P08842 22-583)
Procedure: Steroid sulphatase is defined as: Steryl Sulphatase EC3.1.6.2.
Steroid sulphatase activity was measured in vitro using intact MCF-7 human breast cancer cells. This hormone dependent cell line is widely used to study the control of human breast cancer cell growth. […] Cells were maintained in Minimal Essential Medium (MEM) (Flow Laboratories, Irvine, Scotland) containing 20 mM HEPES, 5% foetal bovine serum, 2 mM glutamine, nonessential amino acids and 0.075% sodium bicarbonate. Up to 30 replicate 25 cm^2 tissue culture flasks were seeded with approximately 1×10^5 cells/flask using the above medium. Cells were grown to 80% confluency and medium was changed every third day.
Each batch of experiments included incubations of microsomes prepared from a sulphatase-positive human placenta (positive control) and flasks without cells (to assess apparent non-enzymatic hydrolysis of the substrate). The number of cell nuclei per flask was determined using a Coulter Counter after treating the cell monolayers with Zaponin. One flask in each batch was used to assess cell membrane status and viability using the Trypan Blue exclusion method (Phillips, H. J. (1973) In: Tissue culture and applications,[eds: Kruse, D. F. & Patterson, M. K.]; pp. 406–408; Academic Press, New York).
Unpaired Student's t-test was used to test the statistical significance of results.
An identical experimental protocol to that described in Example 4 was used to generate results for oestrone-3-N,N-diimethylsulphamate except that incubations contained oestrone-3-N,N-dimethylsulphaiate (5 concentrations: 0; 0.001 μM; 0.01 μM; 0.1 μM; 1 μM) in place of oestrone-3-sulphamate.

[13] = target: T9, Steroid sulphatase (Steryl Sulphatase EC3.1.6.2); assay: Steroid sulphatase activity in MCF-7 cells pre-incubated with inhibitor and washed; format: cell-based; conditions: pre-treatment 2 hours with 0.1 μM, cells washed 3 times; mean ± 1 S.D., n = 3
[14] = target: T8, Steroid sulphatase; assay: Steroid sulphatase activity in placental microsomes; conditions: for Steroid Sulphatase Activity: mean of 2 estimates

- substrate for E1-STS (in words) ([1]; 100 μg incubated for 1 hour with placental microsomes): is indeed a substrate for the sulphatase
SMILES: Cc1cc(=O)oc2cc(OS(=O)(=O)[O-])ccc12.[Na+] [Compound 12, 7-(Sulphoxy)4-Methylcoumarin. sodium salt, reference compound]
- stability in bases and acidic conditions (in words) [2]: stable in bases such as sodium hydroxide in methanol but not in acidic conditions

SMILES: NS(=O)(=O)Oc1ccc2c(C(F)(F)F)cc(=O)oc2c1 [compound 16, 4-(trifluoromethylcoumarin)-7-O-sulphamate]
- inhibition of oestrone sulphatase at 10 μM [3]: 71.5%

- inhibition of oestrone sulphatase activity in vivo [4]: 98%
- effect on uterine growth (oestrogenicity, in words) [5]: no significant effect on uterine growth
- % Inhibition (Mean) Placental Microsomes ([6]; concentration tested 0.1 mM (so in the source)): 97.2%
- % Inhibition (Mean) Placental Microsomes ([6]; concentration tested 1 mM (so in the source)): 99.5%
- % Inhibition (Mean) Placental Microsomes ([6]; concentration tested 10 mM (so in the source)): 99.5%
- % Inhibition (Mean) Placental Microsomes ([6]; concentration tested 25 mM (so in the source)): 99.7%
SMILES: C[C@@]12CCC[C@H]1[C@@H]1CCc3cc(OS(N)(=O)=O)ccc3[C@H]1CC2 [NOMATE, 17-deoxy oestrone-3-O-sulphamate]

- inhibition of E1-STS activity in the uteri [8]: 89.4%
- % Inhibition MD ([9]; 0.1 mg/kg oral daily for seven days): 65%
- % Inhibition SD ([9]; 0.1 mg/kg oral): 72%
- % Inhibition MD ([9]; 1.0 mg/kg oral daily for seven days): 85%
- % Inhibition SD ([9]; 1.0 mg/kg oral): 85%
- % Inhibition MD ([9]; 10.0 mg/kg oral daily for seven days): 89%
- % Inhibition SD ([9]; 10.0 mg/kg oral): 96%
- oral activity in rats (in words) ([9]; oral, rats): potent oral activity
SMILES: Cc1cc(=O)oc2cc(OS(N)(=O)=O)ccc12 [compound 14]
- uterine weight (oestrogenic activity, in words) [7]: did not result in any significant increase in the uterine weight

SMILES: C[C@]12CC[C@@H]3c4ccc(OS(N)(=O)=O)cc4CC[C@H]3[C@@H]1CCC2=O [Oestrone-3-sulphamate]
- effect on hydrolysis of compound (12) by E1-STS (in words) ([1]; EMATE 10 μM): reduced the hydrolysis of compound (12) by E1-STS
- % reduction over control ([10]; assay substrate DHA-S): 94.2%
- Steroid Sulphatase Activity ([10]; assay substrate DHA-S): 0.1 ± 0.01 nmol/30 min/200 mg protein
- % reduction over control ([10]; assay substrate E1-S): 98.4%
- Steroid Sulphatase Activity ([10]; assay substrate E1-S): 0.34 ± 0.1 nmol/30 min/200 mg protein
- IC50 [11]: 70 nM
- inhibition at 10 pM ([12]; MCF7, inhibitor 0.01 nM, read-out: % reduction over control (% inhibition)): 17.2%
- inhibition at 0.0001 µM ([12]; MCF7, inhibitor 0.1 nM, read-out: % reduction over control (% inhibition)): 60.9%
- inhibition at 0.001 µM ([12]; MCF7, inhibitor 1 nM, read-out: % reduction over control (% inhibition)): 95%
- inhibition at 0.01 µM ([12]; MCF7, inhibitor 0.01 μM, read-out: % reduction over control (% inhibition)): 98.8%
- inhibition at 0.1 µM ([12]; MCF7, inhibitor 0.1 μM, read-out: % reduction over control (% inhibition)): 99.2%
- inhibition at 1 µM ([12]; MCF7, inhibitor 1 μM, read-out: % reduction over control (% inhibition)): 99.5%
- Steroid Sulphatase Activity ([12]; inhibitor 0.01 pM): 362.3 ± 21.2 fmol/20 hr/10^6 cells
- Steroid Sulphatase Activity ([12]; inhibitor 0.1 pM): 330.7 ± 17.8 fmol/20 hr/10^6 cells
- Steroid Sulphatase Activity ([12]; inhibitor 1 pM): 321.8 ± 6.2 fmol/20 hr/10^6 cells
- Steroid Sulphatase Activity ([12]; inhibitor 0.01 nM): 265.1 ± 11.0 fmol/20 hr/10^6 cells
- Steroid Sulphatase Activity ([12]; inhibitor 0.1 nM): 124.8 ± 12.4 fmol/20 hr/10^6 cells
- Steroid Sulphatase Activity ([12]; inhibitor 1 nM): 16.49 ± 4.7 fmol/20 hr/10^6 cells
- Steroid Sulphatase Activity ([12]; inhibitor 0.01 μM): 3.92 ± 0.4 fmol/20 hr/10^6 cells
- Steroid Sulphatase Activity ([12]; inhibitor 0.1 μM): 2.53 ± 1.1 fmol/20 hr/10^6 cells
- Steroid Sulphatase Activity ([12]; inhibitor 1 μM): 1.68 ± 0.7 fmol/20 hr/10^6 cells
- Steroid Sulphatase Activity ([12]; inhibitor 1 fM): 353.3 ± 39.0 fmol/20 hr/10^6 cells
- Steroid Sulphatase Activity [13]: 1.7 ± 0.2 fmol/20 hr/10^6 cells
- % reduction over control (% inhibition) ([14]; 0.05 µM): 44.0%
- % reduction over control (% inhibition) ([14]; 0.1 μM): 60.2%
- % reduction over control (% inhibition) ([14]; 0.2 µM): 81.8%
- % reduction over control (% inhibition) ([14]; 0.4 µM): 89.2%
- % reduction over control (% inhibition) ([14]; 0.6 µM): 92.0%
- % reduction over control (% inhibition) ([14]; 0.8 µM): 93.6%
- % reduction over control (% inhibition) ([14]; 1 μM): 93.3%
- Steroid Sulphatase Activity ([14]; inhibitor 0.05 μM): 430.4 pmol/hr/0.1 mg protein
- Steroid Sulphatase Activity ([14]; inhibitor 0.1 μM): 305.9 pmol/hr/0.1 mg protein
- Steroid Sulphatase Activity ([14]; inhibitor 0.2 μM): 140.0 pmol/hr/0.1 mg protein
- Steroid Sulphatase Activity ([14]; inhibitor 0.4 μM): 83.3 pmol/hr/0.1 mg protein
- Steroid Sulphatase Activity ([14]; inhibitor 0.6 μM): 61.8 pmol/hr/0.1 mg protein
- Steroid Sulphatase Activity ([14]; inhibitor 0.8 μM): 49.2 pmol/hr/0.1 mg protein
- Steroid Sulphatase Activity ([14]; inhibitor 1.0 μM): 51.6 pmol/hr/0.1 mg protein
